Patent publication US10040838B2, “CRHR2 peptide agonists and uses thereof” (JANSSEN PHARMACEUTICA NV, priority 2008, dated 2018)
Residues, ends and D or L forms follow the SMILES beside them. No end group written: not given here. *: point of attachment. Succinimide(1-Et,3-yl) = CCN1C(=O)CC(*)C1=O

Target: T1, human CRHR2 (Homo sapiens, UniProt Q13324)
T1 construct: expressed in transfected cells
T1 sequence (Q13324 1-411): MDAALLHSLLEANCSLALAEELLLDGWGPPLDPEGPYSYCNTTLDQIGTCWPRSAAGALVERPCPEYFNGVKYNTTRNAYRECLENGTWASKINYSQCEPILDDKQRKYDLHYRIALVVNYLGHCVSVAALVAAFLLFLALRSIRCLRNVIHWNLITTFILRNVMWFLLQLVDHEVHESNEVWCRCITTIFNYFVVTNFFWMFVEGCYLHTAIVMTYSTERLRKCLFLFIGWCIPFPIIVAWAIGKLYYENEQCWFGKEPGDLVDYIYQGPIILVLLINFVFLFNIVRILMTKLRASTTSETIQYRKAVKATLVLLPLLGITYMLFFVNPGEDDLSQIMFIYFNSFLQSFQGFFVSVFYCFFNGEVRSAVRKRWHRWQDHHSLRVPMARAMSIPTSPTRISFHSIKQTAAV
Assay: cAMP assay in h-CRHR2 transfected SK-N-MC cells
Assay type: cell-based
Details: Table 13; h-SCP control pA50 minus test compound pA50 within same assay batch
Method: The concentration required for 50% maximum effect (A50) was 0.4 nM.
Human CRHR1 (accession number X72304) or CRHR2 (accession number U34587) were cloned into pcDNA3.1/Zeo expression vector and stably transfected into SK-N-MC cells by electroporation. Cells were maintained in MEM w/Earl's Salt with 10% FBS, 50 I.U. penicillin, 50 μg/ml streptomycin, 2 mM L-glutamine, 1 mM sodium pyruvate and 0.1 mM nonessential amino acids, 600 μg/ml G418. Cells were grown at 37° C. in 5% CO2.
Cells were plated in 96-well tissue culture dishes (Biocoat from BD Biosciences) overnight at 50,000 cell/well. Cells were washed with PBS then resuspended in DMEM F-12 without phenol red, containing 10 μM isobutylmethylxanthine (IBMX). Cells were incubated with the peptides at concentrations ranging from 1 pM to 10 μM for 60 min at 37° Celsius. […] Forskolin (10 μM), a direct stimulant of adenylate cyclase, was used as positive control. The assays were stopped by the addition of 0.5 M HCl and mixing by orbital rotation for 2 h at 4° Celsius.
To assess the activity of the inventive peptide at the CRHR2, an intracellular cAMP measurement test using a Flash plate radioactive assay (Catalog No. Cus56088; Perkin Elmer, MA, U.S.A.) was employed.
Transfected SK-N-MC cells were plated in 96-well Biocoat tissue culture dishes (BD Biosciences, San Jose, Calif., U.S.A) overnight at 50,000 cell/well. Cells were first washed with PBS and then suspended with DMEM/F-12 without phenol red, containing […]. Suspended cells were transferred into a 96-well flash plate coated with scintillant fluid. Cells were incubated with peptides ranging from […], for 60 min, at 37° Celsius. Forskolin at 10 μM was used as positive control. After ligand stimulation, cells were lysed by the addition of 0.5M HCl and mixed by orbital rotation for 2 h at 4° Celsius in order to release intracellular cAMP into the media.
Media containing released intracellular cAMP was transferred to a 96-well flash plate coated with scintillant fluid containing an anti-cAMP antibody. In this assay, intracellular cAMP competes with ^125I-labeled cAMP binding to the antibody. To generate a standard curve, cAMP ranging from 2.5 to 250 pmoles/ml was included in the experiment. [^125I]-cAMP was measured on a TopCount scintillation counter (Perkin Elmer, MA, U.S.A).
Individual agonist concentration-response curve data were fitted to the Hill equation, see formula below, using GraphPad Prism (Graphpad Software, La Jolla, Calif., U.S.A.), to provide estimates of agonist concentration needed to generate one-half maximal response (A50), and the maximal asymptote (α) and Hill slope (nH) parameters. In this equation, [A] is the agonist concentration and E is the measured effect:
For display purposes the mean fitted parameter estimates were used to generate a single E/[A] curve shown superimposed on the mean experimental data. Potency estimates for agonists, pA50, are expressed as the negative logarithm of the midpoint of each curve and listed with their standard error of measurement (SEM). Logarithm base 10 of the agonist dose ratio (Log DR) values were calculated by subtraction of the test compound pA50 value from the corresponding h-SCP (SEQ ID NO:1) control pA50 value within the same assay batch. The SEM values of the Log DR values are given by the square root of the sum of the squared SEM values of the h-SCP (SEQ ID NO:1) control and test compound pA50 values.
Human and rat peptides (see Table 10) were used on the stimulation of h-CRHR1 or h-CRHR2 transfected SK-N-MC cells in the cAMP flash plate assay. Peptides were incubated for 1 hr at 37° Celsius. Curves were calculated using non-linear regression sigmoidal concentration-response analysis calculation in GraphPad Prism. The so obtained pA50 values are shown in Table 11 in addition to literature values. […]

Molecule | Log DR
CC[C@H](C)[C@H](NC(=O)[C@H](CCC(N)=O)NC(=O)[C@H](C)NC(=O)[C@H](CCSC)NC(=O)[C@H](CC(C)C)NC(=O)[C@H](Cc1c[nH]cn1)NC(=O)[C@H](C)NC(=O)[C@H](CC(N)=O)NC(=O)[C@H](C)NC(=O)[C@H](C)NC(=O)[C@H](C)NC(=O)[C@H](CCC(N)=O)NC(=O)[C@H](CSC1CC(=O)N(CC)C1=O)NC(=O)[C@H](CCCNC(=N)N)NC(=O)[C@H](CC(C)C)NC(=O)[C@H](CC(N)=O)NC(=O)[C@H](CCCCN)NC(=O)[C@H](C)NC(=O)[C@H](CCCCN)NC(=O)[C@H](C)NC(=O)[C@@H](NC(=O)[C@H](CC(N)=O)NC(=O)[C@H](Cc1ccccc1)NC(=O)[C@H](CC(C)C)NC(=O)[C@H](CC(C)C)NC(=O)[C@H](CC(N)=O)NC(=O)[C@H](CCSC)NC(=O)[C@@H](NC(=O)[C@H](CC(N)=O)NC(=O)[C@@H](NC(=O)[C@@H]1CCCN1C(=O)[C@@H](NC(=O)[C@H](CC(=O)O)NC(=O)[C@H](CC(C)C)NC(=O)[C@H](CO)NC(=O)[C@H](CC(C)C)NC(=O)[C@@H](NC(=O)[C@H](Cc1ccccc1)NC(=O)[C@H](CCCCN)NC(=O)[C@@H](N)[C@@H](C)O)[C@@H](C)O)C(C)C)[C@@H](C)O)[C@@H](C)CC)[C@@H](C)CC)C(N)=O (stereo partly drawn) [SEQ ID NO: 47, TKFTLSLDVPTNIMNLLFNIAKAKNLRC(-NES)QA AANAH LMAQI-NH2] (H-TKFTLSLDVPTNIMNLLFNIAKAKNLRC(Succinimide(1-Et,3-yl))QAAANAHLMAQI-NH2; N-terminus assumed) | −0.03
CC[C@H](C)[C@H](NC(=O)[C@H](CCC(N)=O)NC(=O)[C@H](C)NC(=O)[C@H](CCSC)NC(=O)[C@H](CC(C)C)NC(=O)[C@H](Cc1c[nH]cn1)NC(=O)[C@H](C)NC(=O)[C@H](CC(N)=O)NC(=O)[C@H](C)NC(=O)[C@H](C)NC(=O)[C@H](C)NC(=O)[C@H](CCC(N)=O)NC(=O)[C@H](C)NC(=O)[C@H](CCCNC(=N)N)NC(=O)[C@H](CC(C)C)NC(=O)[C@H](CSC1CC(=O)N(CC)C1=O)NC(=O)[C@H](CCCCN)NC(=O)[C@H](C)NC(=O)[C@H](CCCCN)NC(=O)[C@H](C)NC(=O)[C@@H](NC(=O)[C@H](CC(N)=O)NC(=O)[C@H](Cc1ccccc1)NC(=O)[C@H](CC(C)C)NC(=O)[C@H](CC(C)C)NC(=O)[C@H](CC(N)=O)NC(=O)[C@H](CCSC)NC(=O)[C@@H](NC(=O)[C@H](CC(N)=O)NC(=O)[C@@H](NC(=O)[C@@H]1CCCN1C(=O)[C@@H](NC(=O)[C@H](CC(=O)O)NC(=O)[C@H](CC(C)C)NC(=O)[C@H](CO)NC(=O)[C@H](CC(C)C)NC(=O)[C@@H](NC(=O)[C@H](Cc1ccccc1)NC(=O)[C@H](CCCCN)NC(=O)[C@@H](N)[C@@H](C)O)[C@@H](C)O)C(C)C)[C@@H](C)O)[C@@H](C)CC)[C@@H](C)CC)C(N)=O (stereo partly drawn) [SEQ ID NO: 49, TKFTLSLDVPTNIMNLLFNIAKAKC(-NES) LRAQA AANAH LMAQI-NH2] (H-TKFTLSLDVPTNIMNLLFNIAKAKC(Succinimide(1-Et,3-yl))LRAQAAANAHLMAQI-NH2; N-terminus assumed) | 0.11
TKFTLSLCVPTNIMNLLFNIAKAKNLRAQAAANAHLMAQI-NH2 [SEQ ID NO: 9, TKFTLSLCVPTNIMNLLFNIAKAKNLRAQAAANAHLMAQI-NH2] | 1.89
TKFTLSLDVPTNIMNLLFNIAKAKNLRAQACANAHLMAQI-NH2 [SEQ ID NO: 32, TKFTLSLDVPTNIMNLLFNIAKAKNLRAQACANAHLMAQI-NH2] | 0.11
TKFTLSLDVPTNIMNLLFNIAKAKNLRAQCAANAHLMAQI-NH2 [SEQ ID NO: 31, TKFTLSLDVPTNIMNLLFNIAKAKNLRAQCAANAHLMAQI-NH2] | 1.61
TKCTLSLDVPTNIMNLLFNIAKAKNLRAQAAANAHLMAQI-NH2 [SEQ ID NO: 4, TKCTLSLDVPTNIMNLLFNIAKAKNLRAQAAANAHLMAQI-NH2] | 1.03
TKFTLSLDVPTNIMNLLFNIAKAKNLCAQAAANAHLMAQI-NH2 [SEQ ID NO: 28, TKFTLSLDVPTNIMNLLFNIAKAKNLCAQAAANAHLMAQI-NH2] | 0.16
TKFCLSLDVPTNIMNLLFNIAKAKNLRAQAAANAHLMAQI-NH2 [SEQ ID NO: 5, TKFCLSLDVPTNIMNLLFNIAKAKNLRAQAAANAHLMAQI-NH2] | 0.76

Next, values leading:

Log DR | Molecule
0.42 | TKFTLSLDVPTNIMNLLFNIAKAKNLRAQAAANACLMAQI-NH2 [SEQ ID NO: 36, TKFTLSLDVPTNIMNLLFNIAKAKNLRAQAAANACLMAQI-NH2]
0.72 | TCFTLSLDVPTNIMNLLFNIAKAKNLRAQAAANAHLMAQI-NH2 [SEQ ID NO: 3, TCFTLSLDVPTNIMNLLFNIAKAKNLRAQAAANAHLMAQI-NH2]
0.52 | TKFTLSLDVPTNIMNLLFCIAKAKNLRAQAAANAHLMAQI-NH2 [SEQ ID NO: 20, TKFTLSLDVPTNIMNLLFCIAKAKNLRAQAAANAHLMAQI-NH2]
~2.22 | CC[C@H](C)[C@H](NC(=O)[C@H](CCC(N)=O)NC(=O)[C@H](C)NC(=O)[C@H](CCSC)NC(=O)[C@H](CC(C)C)NC(=O)[C@H](Cc1c[nH]cn1)NC(=O)[C@H](C)NC(=O)[C@H](CC(N)=O)NC(=O)[C@H](C)NC(=O)[C@H](C)NC(=O)[C@H](C)NC(=O)[C@H](CCC(N)=O)NC(=O)[C@H](C)NC(=O)[C@H](CCCNC(=N)N)NC(=O)[C@H](CC(C)C)NC(=O)[C@H](CC(N)=O)NC(=O)[C@H](CCCCN)NC(=O)[C@H](C)NC(=O)[C@H](CCCCN)NC(=O)[C@H](C)NC(=O)[C@@H](NC(=O)[C@H](CC(N)=O)NC(=O)[C@H](Cc1ccccc1)NC(=O)[C@H](CSC1CC(=O)N(CC)C1=O)NC(=O)[C@H](CC(C)C)NC(=O)[C@H](CC(N)=O)NC(=O)[C@H](CCSC)NC(=O)[C@@H](NC(=O)[C@H](CC(N)=O)NC(=O)[C@@H](NC(=O)[C@@H]1CCCN1C(=O)[C@@H](NC(=O)[C@H](CC(=O)O)NC(=O)[C@H](CC(C)C)NC(=O)[C@H](CO)NC(=O)[C@H](CC(C)C)NC(=O)[C@@H](NC(=O)[C@H](Cc1ccccc1)NC(=O)[C@H](CCCCN)NC(=O)[C@@H](N)[C@@H](C)O)[C@@H](C)O)C(C)C)[C@@H](C)O)[C@@H](C)CC)[C@@H](C)CC)C(N)=O (stereo partly drawn) [SEQ ID NO: 53, TKFTL SLDVP TNIMN LC(-NES)FNI AKAKN LRAQA AANAH LMAQI-NH2] (H-TKFTLSLDVPTNIMNLC(Succinimide(1-Et,3-yl))FNIAKAKNLRAQAAANAHLMAQI-NH2; N-terminus assumed)
